Each structure is given as a SMILES string. A value given as a limit tells only on which side of the number the result lay.

T1 sequence (P13569 with tags, fused parts or gaps DEL508-508): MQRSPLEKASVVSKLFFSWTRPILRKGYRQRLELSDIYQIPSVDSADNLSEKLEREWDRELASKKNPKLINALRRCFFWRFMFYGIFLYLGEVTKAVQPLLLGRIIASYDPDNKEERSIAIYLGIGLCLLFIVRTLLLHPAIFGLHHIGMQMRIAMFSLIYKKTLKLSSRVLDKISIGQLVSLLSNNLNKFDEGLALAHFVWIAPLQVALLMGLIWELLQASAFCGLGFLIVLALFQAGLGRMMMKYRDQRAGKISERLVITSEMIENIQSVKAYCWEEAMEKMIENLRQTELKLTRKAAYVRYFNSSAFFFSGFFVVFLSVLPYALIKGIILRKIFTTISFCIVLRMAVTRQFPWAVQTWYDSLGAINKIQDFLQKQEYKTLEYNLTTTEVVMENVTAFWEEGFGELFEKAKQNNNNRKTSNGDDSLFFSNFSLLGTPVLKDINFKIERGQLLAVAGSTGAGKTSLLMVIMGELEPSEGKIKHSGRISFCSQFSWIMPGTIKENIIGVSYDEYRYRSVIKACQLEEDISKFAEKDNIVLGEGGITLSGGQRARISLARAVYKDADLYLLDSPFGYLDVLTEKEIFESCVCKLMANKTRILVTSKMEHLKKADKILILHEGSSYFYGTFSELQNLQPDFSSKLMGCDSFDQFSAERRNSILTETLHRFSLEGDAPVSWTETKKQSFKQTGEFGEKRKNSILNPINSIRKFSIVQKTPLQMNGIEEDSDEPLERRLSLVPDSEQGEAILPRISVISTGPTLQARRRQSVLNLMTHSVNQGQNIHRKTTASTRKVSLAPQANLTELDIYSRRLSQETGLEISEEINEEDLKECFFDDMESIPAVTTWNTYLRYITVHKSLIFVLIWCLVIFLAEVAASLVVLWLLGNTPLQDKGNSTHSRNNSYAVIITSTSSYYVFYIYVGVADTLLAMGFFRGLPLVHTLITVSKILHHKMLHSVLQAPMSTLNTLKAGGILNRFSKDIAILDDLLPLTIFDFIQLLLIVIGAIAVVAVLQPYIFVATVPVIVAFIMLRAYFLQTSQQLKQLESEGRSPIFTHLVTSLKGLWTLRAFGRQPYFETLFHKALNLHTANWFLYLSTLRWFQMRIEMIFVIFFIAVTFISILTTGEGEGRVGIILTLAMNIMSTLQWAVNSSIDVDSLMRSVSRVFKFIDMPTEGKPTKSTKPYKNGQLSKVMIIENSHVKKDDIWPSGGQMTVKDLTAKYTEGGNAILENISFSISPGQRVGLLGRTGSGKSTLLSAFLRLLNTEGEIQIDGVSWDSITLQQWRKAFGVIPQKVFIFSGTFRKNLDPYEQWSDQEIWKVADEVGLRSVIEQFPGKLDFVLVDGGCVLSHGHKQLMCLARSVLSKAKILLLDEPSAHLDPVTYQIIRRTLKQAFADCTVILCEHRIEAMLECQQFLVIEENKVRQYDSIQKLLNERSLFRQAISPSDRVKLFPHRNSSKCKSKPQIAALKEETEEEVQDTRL

This test concerns the target T1, mutant CFTR (Homo sapiens, UniProt P13569, DEL508-508).
T1 construct: expressed in transfected cells
Kind of test: Fluorescence (HS-YFP) assay for CFTR activity, corrector assay. The format is cell-based. The settings on record: CFBE41o- and FRT cells with stable expression of mutant CFTR, read-out: activity (EC50).
What is called EC50 is the midpoint of the concentration-response curve. Regarding `COc1cc(OC2CCCc3c(C(F)(F)F)nn(-c4cccc(C(=O)N(C)c5ccc6c(c5)OC(F)(F)O6)c4)c32)ccc1C(=O)O` (stereo not drawn) [Compound 161, 4-[[1-[3-[(2,2-Difluoro-1,3-benzodioxol-5-yl)-methyl-carbamoyl]phenyl]-3-(trifluoromethyl)-4,5,6,7-tetrahydroindazol-7-yl]oxy]-2-methoxy-benzoic acid], the EC50 is less than 1000 nM. Next, `CN(C(=O)c1cccc(-n2nc(C(F)(F)F)c3c2C(Oc2ccc(C(N)=O)cc2)CCC3)c1)c1ccc2c(c1)OC(F)(F)O2` (stereo not drawn) [Compound 162, 3-[7-(4-Carbamoylphenoxy)-3-(trifluoromethyl)-4,5,6,7-tetrahydroindazol-1-yl]-N-(2,2-difluoro-1,3-benzodioxol-5-yl)-N-methyl-benzamide]: less than 1000 nM. Next, `CN(C(=O)c1cccc(-n2nc(C(F)(F)F)c3c2C(Oc2ccc(C(=O)O)nc2)CCC3)c1)c1ccc2c(c1)OC(F)(F)O2` (stereo not drawn) [Compound 164, 5-[[1-[3-[(2,2-Difluoro-1,3-benzodioxol-5-yl)-methyl-carbamoyl]phenyl]-3-(trifluoromethyl)-4,5,6,7-tetrahydroindazol-7-yl]oxy]pyridine-2-carboxylic acid]: less than 1000 nM; `COc1cncc(N(C)C(=O)c2cccc(-n3nc(C(F)(F)F)c4c3C(Oc3ccc(C(=O)O)cc3)CCC4)c2)c1` (stereo not drawn) [Compound 166, 4-[[1-[3-[(5-Methoxy-3-pyridyl)-methyl-carbamoyl]phenyl]-3-(trifluoromethyl)-4,5,6,7-tetrahydroindazol-7-yl]oxy]benzoic acid]: less than 1000 nM; `COc1ncc(N(C)C(=O)c2cccc(-n3nc(C(F)(F)F)c4c3C(Oc3ccc(C(=O)O)cc3)CCC4)c2)cn1` (stereo not drawn) [Compound 168, 4-[[1-[3-[(2-Methoxypyrimidin-5-yl)-methyl-carbamoyl]phenyl]-3-(trifluoromethyl)-4,5,6,7-tetrahydroindazol-7-yl]oxy]benzoic acid]: less than 1000 nM.

Regarding `CN(C(=O)c1cccc(-n2nc(C(F)(F)F)c3c2C(Oc2cccc(C(=O)O)c2)CCC3)c1)c1ccc2c(c1)OC(F)(F)O2` (stereo not drawn) [Compound 170, 3-[[1-[3-[(2,2-Difluoro-1,3-benzodioxol-5-yl)-methyl-carbamoyl]phenyl]-3-(trifluoromethyl)-4,5,6,7-tetrahydroindazol-7-yl]oxy]benzoic acid], the EC50 was less than 1000 nM. Under `Cc1nc2ccc(N(C)C(=O)c3cccc(-n4nc(C(F)(F)F)c5c4C(Oc4ccc(C(=O)O)cc4)CCC5)c3)cn2n1` (stereo not drawn) [Compound 172, 4-[[1-[3-[Methyl-(2-methyl-[1,2,4]triazolo[1,5-a]pyridin-6-yl)carbamoyl]phenyl]-3-(trifluoromethyl)-4,5,6,7-tetrahydroindazol-7-yl]oxy]benzoic acid] stands less than 1000 nM; under `Cc1cc2ncc(N(C)C(=O)c3cccc(-n4nc(C(F)(F)F)c5c4C(Oc4ccc(C(=O)O)cc4)CCC5)c3)cn2n1` (stereo not drawn) [Compound 174, 4-[[1-[3-[Methyl-(2-methylpyrazolo[1,5-a]pyrimidin-6-yl)carbamoyl]phenyl]-3-(trifluoromethyl)-4,5,6,7-tetrahydroindazol-7-yl]oxy]benzoic acid], less than 1000 nM. Under `Cc1cc(OC2CCCc3c(C(F)(F)F)nn(-c4cccc(C(=O)N(C)c5ccc6c(c5)OC(F)(F)O6)c4)c32)ccc1C(=O)O` (stereo not drawn) [Compound 176, 4-[[1-[3-[(2,2-Difluoro-1,3-benzodioxol-5-yl)-methyl-carbamoyl]phenyl]-3-(trifluoromethyl)-4,5,6,7-tetrahydroindazol-7-yl]oxy]-2-methyl-benzoic acid] stands less than 1000 nM; under `CN(C(=O)c1cccc(-n2nc(C(F)(F)F)c3c2C(Oc2cncc(C(=O)O)c2)CCC3)c1)c1ccc2c(c1)OC(F)(F)O2` (stereo not drawn) [Compound 178, 5-[[1-[3-[(2,2-Difluoro-1,3-benzodioxol-5-yl)-methyl-carbamoyl]phenyl]-3-(trifluoromethyl)-4,5,6,7-tetrahydroindazol-7-yl]oxy]pyridine-3-carboxylic acid], less than 1000 nM. Turning to `CN(C(=O)c1cccc(-n2nc(C(F)(F)F)c3c2C(Oc2ccc(C(=O)O)cn2)CCC3)c1)c1ccc2c(c1)OC(F)(F)O2` (stereo not drawn) [Compound 180, 6-[[1-[3-[(2,2-Difluoro-1,3-benzodioxol-5-yl)-methyl-carbamoyl]phenyl]-3-(trifluoromethyl)-4,5,6,7-tetrahydroindazol-7-yl]oxy]pyridine-3-carboxylic acid], the EC50 is less than 1000 nM. For the molecule `CN(C(=O)c1cccc(-n2nc(C(F)(F)F)c3c2C(Oc2cc(C(=O)O)ccn2)CCC3)c1)c1ccc2c(c1)OC(F)(F)O2` (stereo not drawn) [Compound 182, 2-[[1-[3-[(2,2-Difluoro-1,3-benzodioxol-5-yl)-methyl-carbamoyl]phenyl]-3-(trifluoromethyl)-4,5,6,7-tetrahydroindazol-7-yl]oxy]pyridine-4-carboxylic acid], the half-maximal effective concentration (EC50) was less than 1000 nM. Next, `CN(C(=O)c1cccc(-n2nc(C(F)(F)F)c3c2C(Oc2ccc(C(=O)O)cc2)COC3)c1)c1ccc2c(c1)OC(F)(F)O2` (stereo not drawn) [Compound 202, 4-[[1-[3-[(2,2-Difluoro-1,3-benzodioxol-5-yl)-methyl-carbamoyl]phenyl]-3-(trifluoromethyl)-6,7-dihydro-4H-pyrano[4,3-c]pyrazol-7-yl]oxy]benzoic acid]: less than 1000 nM; `O=C(O)c1ccc(OC2CCCc3c(C(F)(F)F)nn(-c4cccc(C(=O)Nc5ccc6c(c5)OC(F)(F)O6)c4)c32)cc1` (stereo not drawn) [Compound 253, 4-[[1-[3-[(2,2-Difluoro-1,3-benzodioxol-5-yl)carbamoyl]phenyl]-3-(trifluoromethyl)-4,5,6,7-tetrahydroindazol-7-yl]oxy]benzoic acid]: more than 2000 nM; `CN1Cc2c(C(F)(F)F)nn(-c3cccc(C(=O)N(C)c4ccc5c(c4)OC(F)(F)O5)c3)c2C(Oc2ccc(C(=O)O)cc2)C1` (stereo not drawn) [Compound 274, Ammonium 4-[[1-[3-[(2,2-difluoro-1,3-benzodioxol-5-yl)-methyl-carbamoyl]phenyl]-5-methyl-3-(trifluoromethyl)-6,7-dihydro-4H-pyrazolo[4,3-c]pyridin-7-yl]oxy]benzoate]: less than 1000 nM.

The values above are taken from patent US10968225B2, “Compounds and compositions for the treatment of cystic fibrosis” (Fondazione Istituto Italiano Di Tecnologia, priority 2017, dated 2021).
